Test [1] is described as follows: Antiproliferative activity against human HI975-TM cells harboring EGFR L858R/T790M/C797S mutant assessed as inhibition of cell growth incubated for 72 hrs by CCK-8 assay. The settings on record: H1975-TM. In kind it is functional, cell-based. For orientation: Formazan colour is commonly taken as a measure of viable cells.
Test [2] has as its target Protein cereblon/Epidermal growth factor receptor (Homo sapiens, UniProt P00533+Q96SW2, T790M/C797S/L858R). The test is described as follows: PROTAC activity at CRBN/EGFR L858R/T790M/C797S mutant in human H1975-TM cells assessed as induction of EGFR degradation incubated for 24 hrs by Western blot analysis. It is filed as cell-based.
Test [3] concerns Protein cereblon/Epidermal growth factor receptor (Homo sapiens), P00533+Q96SW2 [L858R,T790M,C797S]. The test is described as follows: PROTAC activity at CRBN/EGFR L858R/T790M/C797S mutant in human H1975-TM cells assessed as induction of EGFR degradation by measuring maximal efficacy at 300 nM incubated for 24 hrs by Western blot analysis relative to control. It is filed as cell-based. In general terms: Immunoblotting shows a protein as a band on a membrane.

Test [4] concerns the target Protein cereblon/Epidermal growth factor receptor (Homo sapiens, UniProt P00533+Q96SW2, T790M/L858R). The test is described as follows: PROTAC activity at CRBN/EGFR L858R/T790M double mutant in human NCI-H1975 cells assessed as induction of EGFR degradation. In kind it is cell-based.
Test [5] deals with Protein cereblon/Epidermal growth factor receptor (Homo sapiens), P00533+Q96SW2 [L858R,T790M,C797S]. Description: Induction of EGFR L858R/T790M/C797S mutant in human H1975-TM cells assessed as remaining activity at 1 uM incubated for 6 hrs by Western blot analysis (reference value: 100%). In kind it is cell-based.
Test [6] concerns the target Epidermal growth factor receptor (Homo sapiens, UniProt P00533, C797S/L858R/T790M). Description: Binding affinity to EGFR L858R/T790M/C797S mutant (unknown origin) assessed as dissociation constant incubated for 10 mins under dark condition by MST analysis.
In test [7] the test system is Protein cereblon/Epidermal growth factor receptor (Homo sapiens), P00533+Q96SW2 [L858R,T790M,C797S]. Description: PROTAC activity at CRBN/EGFR L858R/T790M/C797S mutant in human H1975-TM cells assessed as induction of EGFR degradation by measuring remaining activity at 100 nM incubated for 24 hrs by Western blot analysis (reference value: 100%). In kind it is cell-based.

Test [8] addresses von Hippel-Lindau disease tumor suppressor/Epidermal growth factor receptor (Homo sapiens, UniProt P00533+P40337, L858R). Description: PROTAC activity at VHL/EGFR L858R mutant in human NCI-H3255 cells assessed as induction of EGFR degradation incubated for 24 hrs by immunoblotting analysis. It is filed as cell-based.
Another test deals with NCI-H1975. The test is described as follows: Antiproliferative activity against human NCI-H1975 cells harboring EGFR L858R/T790M mutant assessed as inhibition of cell proliferation incubated for 72 hrs by CCK8 assay. It is filed as functional, cell-based. The settings on record: NCI-H1975, 72 h.
In a further test the test system is PC-9. The test is described as follows: Antiproliferative activity against human PC-9 cells harboring EGFR exon 19 deletion mutant assessed as inhibition of cell proliferation incubated for 72 hrs by CCK8 assay. It is filed as functional, cell-based. To be noted: PC-9, 72 h.
The subject of a further test is A549. The test is described as follows: Antiproliferative activity against human A549 cells harboring wildtype EGFR assessed as inhibition of cell proliferation incubated for 72 hrs by CCK8 assay. In kind it is functional, cell-based. To be noted: A549, 72 h.
The nature of test [9]: Antiproliferative activity against human PC-9-TM cells harboring EGFR exon 19 deletion/T790M/[…] mutant assessed as inhibition of cell proliferation incubated for 72 hrs by CCK8 assay. It is filed as functional, cell-based.

Sequence of Protein cereblon/Epidermal growth factor receptor (Homo sapiens, UniProt P00533+Q96SW2, T790M/C797S/L858R) (P00533 25-1210 T790M/C797S/L858R limits assumed, stated change not applied): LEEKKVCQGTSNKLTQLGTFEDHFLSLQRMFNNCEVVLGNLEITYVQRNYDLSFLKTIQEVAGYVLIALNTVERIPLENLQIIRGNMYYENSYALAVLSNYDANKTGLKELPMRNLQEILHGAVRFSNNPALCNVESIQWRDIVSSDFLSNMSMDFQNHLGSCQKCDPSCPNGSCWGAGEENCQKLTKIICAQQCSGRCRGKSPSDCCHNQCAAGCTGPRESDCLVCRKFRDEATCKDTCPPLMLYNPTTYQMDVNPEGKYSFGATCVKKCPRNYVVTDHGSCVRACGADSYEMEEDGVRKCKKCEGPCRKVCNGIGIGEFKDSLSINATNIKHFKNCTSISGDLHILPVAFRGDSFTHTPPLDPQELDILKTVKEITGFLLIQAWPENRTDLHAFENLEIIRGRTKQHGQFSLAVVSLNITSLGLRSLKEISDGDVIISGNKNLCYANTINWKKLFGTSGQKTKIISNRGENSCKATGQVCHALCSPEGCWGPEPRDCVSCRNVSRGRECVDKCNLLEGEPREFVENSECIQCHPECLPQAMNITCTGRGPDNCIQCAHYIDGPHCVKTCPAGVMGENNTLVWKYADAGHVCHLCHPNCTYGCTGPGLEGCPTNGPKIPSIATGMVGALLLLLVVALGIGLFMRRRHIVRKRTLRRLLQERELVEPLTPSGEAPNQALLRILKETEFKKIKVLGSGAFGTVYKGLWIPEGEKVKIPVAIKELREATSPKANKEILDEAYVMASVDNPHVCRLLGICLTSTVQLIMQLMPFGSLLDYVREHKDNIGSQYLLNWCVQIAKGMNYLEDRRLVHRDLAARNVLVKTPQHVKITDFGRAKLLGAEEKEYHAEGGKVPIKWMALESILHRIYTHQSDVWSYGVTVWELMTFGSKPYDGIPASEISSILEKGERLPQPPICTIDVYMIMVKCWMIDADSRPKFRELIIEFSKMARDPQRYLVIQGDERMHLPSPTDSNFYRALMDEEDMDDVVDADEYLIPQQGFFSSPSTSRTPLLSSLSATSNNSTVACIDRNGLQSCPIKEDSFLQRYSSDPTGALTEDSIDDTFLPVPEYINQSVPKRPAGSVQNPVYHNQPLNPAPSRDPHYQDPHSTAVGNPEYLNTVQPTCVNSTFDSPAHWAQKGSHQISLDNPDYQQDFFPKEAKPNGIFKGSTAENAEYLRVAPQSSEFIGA
Sequence of Protein cereblon/Epidermal growth factor receptor (Homo sapiens, UniProt P00533+Q96SW2, T790M/C797S/L858R) (Q96SW2 whole entry, stated change not applied): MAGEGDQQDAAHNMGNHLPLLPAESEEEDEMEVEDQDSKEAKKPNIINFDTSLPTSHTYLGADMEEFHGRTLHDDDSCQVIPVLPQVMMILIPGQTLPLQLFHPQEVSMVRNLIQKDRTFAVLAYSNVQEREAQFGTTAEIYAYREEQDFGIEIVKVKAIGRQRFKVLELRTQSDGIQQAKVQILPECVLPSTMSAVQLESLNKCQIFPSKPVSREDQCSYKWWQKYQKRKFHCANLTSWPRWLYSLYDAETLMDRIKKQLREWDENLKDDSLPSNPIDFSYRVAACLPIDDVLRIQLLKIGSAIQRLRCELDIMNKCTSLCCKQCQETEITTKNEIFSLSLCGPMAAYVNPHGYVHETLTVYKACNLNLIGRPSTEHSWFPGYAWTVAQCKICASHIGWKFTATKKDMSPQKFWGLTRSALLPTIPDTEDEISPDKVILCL
Sequence of von Hippel-Lindau disease tumor suppressor/Epidermal growth factor receptor (P00533 25-1210 L858R limits assumed, stated change not applied): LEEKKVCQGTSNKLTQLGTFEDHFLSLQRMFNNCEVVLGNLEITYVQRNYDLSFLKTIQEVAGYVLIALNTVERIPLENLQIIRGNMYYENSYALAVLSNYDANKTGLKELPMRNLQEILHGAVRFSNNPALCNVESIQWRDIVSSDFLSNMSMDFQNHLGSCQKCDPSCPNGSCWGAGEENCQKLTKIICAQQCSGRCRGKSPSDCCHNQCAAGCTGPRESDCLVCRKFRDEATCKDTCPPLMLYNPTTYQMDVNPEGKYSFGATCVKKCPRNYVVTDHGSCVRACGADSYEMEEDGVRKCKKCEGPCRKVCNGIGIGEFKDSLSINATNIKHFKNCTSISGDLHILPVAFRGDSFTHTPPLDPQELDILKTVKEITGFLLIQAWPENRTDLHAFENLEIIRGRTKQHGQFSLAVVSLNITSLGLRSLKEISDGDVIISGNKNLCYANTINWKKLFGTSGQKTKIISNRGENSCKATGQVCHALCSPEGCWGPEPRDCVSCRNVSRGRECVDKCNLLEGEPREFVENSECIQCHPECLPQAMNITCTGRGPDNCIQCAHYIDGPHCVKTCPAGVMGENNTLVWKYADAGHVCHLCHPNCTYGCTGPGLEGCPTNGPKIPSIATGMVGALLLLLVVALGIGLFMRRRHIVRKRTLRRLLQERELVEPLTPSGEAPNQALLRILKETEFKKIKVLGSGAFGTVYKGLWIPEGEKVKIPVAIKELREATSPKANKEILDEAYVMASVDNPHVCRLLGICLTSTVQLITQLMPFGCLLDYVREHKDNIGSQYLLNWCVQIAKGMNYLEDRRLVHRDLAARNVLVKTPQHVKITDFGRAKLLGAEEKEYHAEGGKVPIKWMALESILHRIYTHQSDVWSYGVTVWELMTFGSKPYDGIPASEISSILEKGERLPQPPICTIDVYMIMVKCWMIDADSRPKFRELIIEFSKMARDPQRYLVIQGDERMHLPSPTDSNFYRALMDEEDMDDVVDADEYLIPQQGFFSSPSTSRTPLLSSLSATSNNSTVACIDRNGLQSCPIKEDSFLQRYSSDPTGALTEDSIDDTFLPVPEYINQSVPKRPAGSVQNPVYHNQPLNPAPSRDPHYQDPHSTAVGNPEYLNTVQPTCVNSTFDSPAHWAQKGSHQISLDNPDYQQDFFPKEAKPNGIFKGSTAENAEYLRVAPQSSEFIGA
Sequence of von Hippel-Lindau disease tumor suppressor/Epidermal growth factor receptor (P40337 whole entry, stated change not applied): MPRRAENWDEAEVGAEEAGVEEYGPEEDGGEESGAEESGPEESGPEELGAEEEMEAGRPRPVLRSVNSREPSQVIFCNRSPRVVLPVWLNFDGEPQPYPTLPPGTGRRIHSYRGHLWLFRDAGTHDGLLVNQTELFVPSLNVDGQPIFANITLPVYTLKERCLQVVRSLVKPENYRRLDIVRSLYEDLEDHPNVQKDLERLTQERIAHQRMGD
Sequence of Epidermal growth factor receptor (P00533 25-1210 T790M/C797S/L858R limits assumed): as the sequence (P00533 25-1210 T790M/C797S/L858R limits assumed, stated change not applied) above

The term IC50 denotes the concentration that gives 50% inhibition. The term DC50 denotes the concentration giving 50% degradation. `CCS(=O)(=O)n1cc(-c2nc(Nc3ccc(N4CCN(CC(=O)Nc5cccc6c5CN(C5CCC(=O)NC5=O)C6=O)CC4)cc3)ncc2C(F)(F)F)c2ccccc21` (stereo not drawn): the IC50 in test [1] was 88.7 nM. In addition, in test [2], the DC50 came out at 30.1 nM. The Emax in test [3] was determined as 89.3%.

`O=C1CCC(N2C(=O)c3cccc(NCCOCCOCCOCCN4CCN(c5ccc(-c6ccc7c(c6)C(=O)N(C(C(=O)Nc6nccs6)c6ccccc6)C7)cn5)CC4)c3C2=O)C(=O)N1` (stereo not drawn): the DC50 in test [4] is 5.9 nM.

Turning to `CCS(=O)(=O)N1C=C(c2nc(Nc3ccc(N4CCN(CCCCC(=O)Nc5cccc6c5CN(C5CCC(=O)NC5=O)C6=O)CC4)cc3)ncc2C(F)(F)F)C2CC=CC=C21` (stereo not drawn), the concentration for half-maximal inhibition (IC50) in test [1] came out at 93.5 nM. For the same compound, the Emax in [3] was > 95%.

As to `CC(C)C[C@@H](C=O)NC(=O)[C@H](CC(C)C)NC(=O)[C@H](CC(C)C)NC(=O)OCc1ccccc1`, the Activity in test [5] came out at 80.3%.

For `CCS(=O)(=O)n1cc(-c2nc(Nc3ccc(N4CCN(C(=O)CCCC(=O)Nc5cccc6c5CN(C5CCC(=O)NC5=O)C6=O)CC4)cc3)ncc2C(F)(F)F)c2ccccc21` (stereo not drawn), the IC50 in [1] stood at 198 nM. Moreover, the DC50 in test [2] turned out to be 153 nM. For the same compound, the Emax in test [3] was found to be 80.4%.

For `C=CC(=O)Nc1cc(Nc2nccc(-c3cn(C)c4ccccc34)n2)c(OC)cc1N(C)CCN(C)C` [OSIMERTINIB], the IC50 in test [1] is 2240 nM.

Consider `CCS(=O)(=O)n1cc(-c2nc(Nc3ccc(N4CCN(CCCCCCCCC(=O)Nc5cccc6c5CN(C5CCC(=O)NC5=O)C6=O)CC4)cc3)ncc2C(F)(F)F)c2ccccc21` (stereo not drawn), for which, in [1], the IC50 amounted to 45.4 nM. In addition, the half-maximal degradation concentration (DC50) in [2] was 33.2 nM. Also, the Emax in test [3] is > 95%.

As for `CCS(=O)(=O)n1cc(-c2nc(Nc3ccc(N4CCN(C(=O)CCCCCCC(=O)Nc5cccc6c5CN(C5CCC(=O)NC5=O)C6=O)CC4)cc3)ncc2C(F)(F)F)c2ccccc21` (stereo not drawn), the IC50 in test [1] worked out at 278 nM. Moreover, in [2], the half-maximal degradation concentration (DC50) is 159 nM. The Emax in test [3] came out at 85.9%.

Broadly, the Kd is the equilibrium constant for the complex coming apart. As for `CCS(=O)(=O)n1cc(-c2nc(Nc3ccc(N4CCNCC4)cc3)ncc2C(F)(F)F)c2ccccc21`, in [6], the Kd turned out to be 47.9 nM. Further, the Activity in test [7] is 106%.

In the case of `CCS(=O)(=O)n1cc(-c2nc(Nc3ccc(N4CCN(CCOCCOCC(=O)Nc5cccc6c5CN(C5CCC(=O)NC5=O)C6=O)CC4)cc3)ncc2C(F)(F)F)c2ccccc21` (stereo not drawn), the IC50 in test [1] worked out at 34.7 nM. Also, the DC50 in [2] was 25.3 nM. For the same compound, the Emax in test [3] was > 95%.

With `CCS(=O)(=O)n1cc(-c2nc(Nc3ccc(N4CCN(C(=O)CCCCCC(=O)Nc5cccc6c5CN(C5CCC(=O)NC5=O)C6=O)CC4)cc3)ncc2C(F)(F)F)c2ccccc21` (stereo not drawn), the IC50 in test [1] came to 197 nM. In addition, the DC50 in test [2] was 162 nM. In addition, the Emax in test [3] was 80.1%.

`CCS(=O)(=O)n1cc(-c2nc(Nc3ccc(N4CCN(CCCCC(=O)Nc5cccc6c5CN(C5CCC(=O)NC5=O)C6=O)CC4)cc3)ncc2C(F)(F)F)c2ccccc21` (stereo not drawn): the half-maximal degradation concentration (DC50) in test [2] was 82.5 nM.

On to `CCS(=O)(=O)n1cc(-c2nc(Nc3ccc(N4CCN(CCCCCC(=O)Nc5cccc6c5CN(C5CCC(=O)NC5=O)C6=O)CC4)cc3)ncc2C(F)(F)F)c2ccccc21` (stereo not drawn), for which, in test [1], the IC50 worked out at 62.9 nM. Also, in test [2], the DC50 came to 59.4 nM. In addition, the Emax in test [3] turned out to be 94.6%.

For `COc1cc2ncnc(Nc3ccc(F)c(Cl)c3)c2cc1OCCCCCOCCOCCC(=O)N[C@H](C(=O)N1C[C@H](O)C[C@H]1C(=O)NCc1ccc(-c2scnc2C)cc1)C(C)(C)C`, the DC50 in test [8] is 39 nM.

Take `CCS(=O)(=O)n1cc(-c2nc(Nc3ccc(N4CCN(CCC(=O)Nc5cccc6c5CN(C5CCC(=O)NC5=O)C6=O)CC4)cc3)ncc2C(F)(F)F)c2ccccc21` (stereo not drawn): the IC50 in test [1] is 59.9 nM. The DC50 in [2] amounted to 26.1 nM. For the same compound, in test [3], the Emax was found to be 94.7%.

Turning to `CCS(=O)(=O)n1cc(-c2nc(Nc3ccc(N4CCN(CCCCCCCCCC(=O)Nc5cccc6c5CN(C5CCC(=O)NC5=O)C6=O)CC4)cc3)ncc2C(F)(F)F)c2ccccc21` (stereo not drawn), the IC50 in [1] amounted to 48.6 nM. In test [2], the 50% degradation concentration (DC50) worked out at 68.7 nM. In test [3], the Emax was 80.6%.

For the compound `CCS(=O)(=O)n1cc(-c2nc(Nc3ccc(N4CCN(CCCCCCC(=O)Nc5cccc6c5CN(C5CCC(=O)N(C)C5=O)C6=O)CC4)cc3)ncc2C(F)(F)F)c2ccccc21` (stereo not drawn), the Activity in [7] is 97.7%.

`CCS(=O)(=O)n1cc(-c2nc(Nc3ccc(N4CCN(CCCCCCCCCCC(=O)Nc5cccc6c5CN(C5CCC(=O)NC5=O)C6=O)CC4)cc3)ncc2C(F)(F)F)c2ccccc21` (stereo not drawn): the IC50 in [1] was 161 nM. Further, the DC50 in [2] turned out to be 281 nM. Besides, the Emax in test [3] turned out to be 77.3%.

`CCS(=O)(=O)n1cc(-c2nc(Nc3ccc4c(ccn4CCN(C)C)c3)ncc2C(F)(F)F)c2ccccc21`: the IC50 in test [1] stood at 16.3 nM.

As for `CCS(=O)(=O)n1cc(-c2nc(Nc3ccc(N4CCN(C(=O)CCC(=O)Nc5cccc6c5CN(C5CCC(=O)NC5=O)C6=O)CC4)cc3)ncc2C(F)(F)F)c2ccccc21` (stereo not drawn), the half-inhibitory concentration (IC50) in test [1] came out at 419 nM. Further, the DC50 in [2] came to 180 nM. For the same compound, the Emax in test [3] turned out to be 88.4%.

In the case of `CCS(=O)(=O)n1cc(-c2nc(Nc3ccc(N4CCN(C(=O)CCCCC(=O)Nc5cccc6c5CN(C5CCC(=O)NC5=O)C6=O)CC4)cc3)ncc2C(F)(F)F)c2ccccc21` (stereo not drawn), the IC50 in test [1] came to 188 nM. Further, the half-maximal degradation concentration (DC50) in [2] is > 300 nM. Further, in test [3], the Emax came to 48.3%.

With `COc1cc(N2CCC(N3CCN(C)CC3)CC2)ccc1Nc1ncc(Cl)c(Nc2ccccc2P(C)(C)=O)n1` [BRIGATINIB], the IC50 with NCI-H1975 worked out at 444 nM; in the test with PC-9 it was 110 nM; in test [1], 562 nM; with A549 it was 911 nM; in test [9] it was 404 nM.

On to `CCS(=O)(=O)n1cc(-c2nc(Nc3ccc(N4CCN(CCCC(=O)Nc5cccc6c5CN(C5CCC(=O)NC5=O)C6=O)CC4)cc3)ncc2C(F)(F)F)c2ccccc21` (stereo not drawn), for which the IC50 in [1] was 62.7 nM. Moreover, the DC50 in test [2] was determined as 49.7 nM. Also, the Emax in test [3] is > 95%.

For `CCS(=O)(=O)n1cc(-c2nc(Nc3ccc(N4CCN(CCCCCCCC(=O)Nc5cccc6c5CN(C5CCC(=O)NC5=O)C6=O)CC4)cc3)ncc2C(F)(F)F)c2ccccc21` (stereo not drawn), the IC50 in test [1] came out at 34.2 nM. In test [2], the DC50 came to 17 nM. For the same compound, the Emax in [3] is > 95%.
